Key:
[1] = for vapor or sublimation pressure: Gas chromatography; for Normal melting temperature: Crystal
[2] = Molar enthalpy of transition or fusion; details: Crystal; DSC

CC1(C)CCC[C@]2(C)[C@H]3CCO[C@]3(C)CC[C@@H]12 [(-)-Ambroxide]
[1]
Details	vapor or sublimation pressure [kPa]
298.15 K, Metastable liquid	0.00012
310 K, Metastable liquid	0.00039
320 K, Metastable liquid	0.00096
330 K, Metastable liquid	0.0023
340 K, Metastable liquid	0.0049
350 K, Liquid	0.01
360 K, Liquid	0.02
370 K, Liquid	0.038
380 K, Liquid	0.069
390 K, Liquid	0.12
400 K, Liquid	0.2
410 K, Liquid	0.32
420 K, Liquid	0.51
430 K, Liquid	0.77
440 K, Liquid	1.1
450 K, Liquid	1.7
460 K, Liquid	2.4
470 K, Liquid	3.4
480 K, Liquid	4.7
490 K, Liquid	6.3
500 K, Liquid	8.4

[1]
Details	Normal melting temperature [°C]
DTA	72.7
visual observation	75.00

Details	Molar enthalpy of transition or fusion [kJ/mol]
[2]	20.3

CC1COCc2cc3c(cc21)C(C)(C)C(C)C3(C)C (stereo not drawn) [Galaxolide]
[1], Metastable liquid
Details	vapor or sublimation pressure [kPa]
298.15 K	2.6e-05
310 K	9.9e-05
320 K	0.00027
330 K	0.00071
340 K	0.0017
350 K	0.0038
360 K	0.0081
370 K	0.016
380 K	0.032
390 K	0.058
400 K	0.1
410 K	0.16
420 K	0.29
430 K	0.46
440 K	0.72
450 K	1.1
460 K	1.6
470 K	2.4
480 K	3.4
490 K	4.8
500 K	6.6

c1ccc2c(c1)oc1ccccc12 [dibenzo[bd]furan]
[1]
Details	vapor or sublimation pressure [kPa]
298.15 K, Metastable liquid	0.0011
310 K, Metastable liquid	0.0031
320 K, Metastable liquid	0.007
330 K, Metastable liquid	0.015
340 K, Metastable liquid	0.03
350 K, Metastable liquid	0.058
360 K, Liquid	0.11
370 K, Liquid	0.18
380 K, Liquid	0.31
390 K, Liquid	0.51
400 K, Liquid	0.8
410 K, Liquid	1.2
420 K, Liquid	1.8
430 K, Liquid	2.6
440 K, Liquid	3.7
450 K, Liquid	5.2

c1ccc2ccccc2c1 [naphthalene]
Details	Normal melting temperature [°C]
[1], DTA	79.2

Details	Molar enthalpy of transition or fusion [kJ/mol]
[2]	19.1

— the NIST ThermoML archive (doi:10.1016/j.jct.2018.09.012)
